Test results: patent US9907790B2, “Solid forms of an ASK1 inhibitor” (Gilead Sciences, Inc., priority 2014, dated 2018)
In brackets after ≈: the same amount, converted by molar mass. One block for each molecule: values may come before it.

Columns and labels:
Format in all cases: physicochemical
[1] = High humidity stress test at 75% RH/RT
[2] = Stable form screen of Compound I (suspension in solvents at RT, solids analysed by XRPD); details: starting from Compound I Form I
Description: Compound I Form I was suspended with stirring in capped glass vials at RT. Samples from the suspensions were centrifuged/filtered and the isolated solids and liquids were analyzed. Solids were analyzed by XRPD and liquids were analyzed for solubility by […]. Sampling and analysis were performed after one day and greater than fourteen days.

[3] = Form change on heating, drying or exposure to ambient conditions; details: for form change at ambient conditions: ambient temperature and humidity / storage at ambient conditions; for form change upon drying: drying (air-drying at RT)
Source text: Form V has only been truly isolated by growth of single crystals.
Isolated solids were dried with filter paper to remove residual solvents and analyzed by DSC, TGA and KF. […] (FIG. 45).
The sample was stirred for more than two months before being placed into storage without agitation and at ambient conditions. […] The material was collected by vacuum filtration and dried under ambient conditions. […] (FIG. 48).

[4] = Solubility of Compound I in EtOH; details: ethanol, organic solvent or mixture
Description: The crystallization was then continued in line with Method 1 outlined above. After filtration, the Form I solids are dried in a vacuum oven at about 45-50° C.

Molecule: 5-(4-cyclopropyl-1H-imidazol-1-yl)-N-(6-(4-isopropyl-4H-1,2,4-triazol-3-yl)pyridin-2-yl)-2-fluoro-4-methylbenzamide edisylate [Compound I Edisylate Form I]
- deliquescence in high humidity stress test [1]: did not show any evidence of deliquescence

Molecule: 5-(4-cyclopropyl-1H-imidazol-1-yl)-N-(6-(4-isopropyl-4H-1,2,4-triazol-3-yl)pyridin-2-yl)-2-fluoro-4-methylbenzamide gentisate [Compound I Gentisate Form II]
- deliquescence in high humidity stress test [1]: did not show any evidence of deliquescence

Molecule: 5-(4-cyclopropyl-1H-imidazol-1-yl)-N-(6-(4-isopropyl-4H-1,2,4-triazol-3-yl)pyridin-2-yl)-2-fluoro-4-methylbenzamide glutarate [Compound I Glutarate Form I]
- deliquescence in high humidity stress test [1]: did not show any evidence of deliquescence

Molecule: 5-(4-cyclopropyl-1H-imidazol-1-yl)-N-(6-(4-isopropyl-4H-1,2,4-triazol-3-yl)pyridin-2-yl)-2-fluoro-4-methylbenzamide propyl gallate [Compound I Propyl Gallate Form I]
- deliquescence in high humidity stress test [1]: did not show any evidence of deliquescence

Molecule: CCS(=O)(=O)O.Cc1cc(F)c(C(=O)Nc2cccc(-c3nncn3C(C)C)n2)cc1-n1cnc(C2CC2)c1 [Compound I Esylate Form I, 5-(4-cyclopropyl-1H-imidazol-1-yl)-N-(6-(4-isopropyl-4H-1,2,4-triazol-3-yl)pyridin-2-yl)-2-fluoro-4-methylbenzamide esylate]
- deliquescence in high humidity stress test [1]: did not show any evidence of deliquescence

- 24 Hour XRPD ([2]; suspended in DCM at RT): mixture of Forms II and V
Molecule: Cc1cc(F)c(C(=O)Nc2cccc(-c3nncn3C(C)C)n2)cc1-n1cnc(C2CC2)c1 [Compound I Form I, 5-(4-cyclopropyl-1H-imidazol-1-yl)-N-(6-(4-isopropyl-4H-1,2,4-triazol-3-yl)pyridin-2-yl)-2-fluoro-4-methylbenzamide]
- 14+ Day XRPD ([2]; suspended in DCM at RT): mixture of Compound I Form II and Compound I Form V

- form change after heating ([3]; heating to about 110° C.): No form change
- form change after heating ([3]; heating up to about 180° C.): re-crystallizes to Compound I Form VI
Molecule: Cc1cc(F)c(C(=O)Nc2cccc(-c3nncn3C(C)C)n2)cc1-n1cnc(C2CC2)c1 [Compound I Form II, 5-(4-cyclopropyl-1H-imidazol-1-yl)-N-(6-(4-isopropyl-4H-1,2,4-triazol-3-yl)pyridin-2-yl)-2-fluoro-4-methylbenzamide]

- form change at ambient conditions [3]: converts to Form I
Molecule: Cc1cc(F)c(C(=O)Nc2cccc(-c3nncn3C(C)C)n2)cc1-n1cnc(C2CC2)c1 [Compound I Form IX, 5-(4-cyclopropyl-1H-imidazol-1-yl)-N-(6-(4-isopropyl-4H-1,2,4-triazol-3-yl)pyridin-2-yl)-2-fluoro-4-methylbenzamide]

- form change upon drying [3]: readily desolvates to Compound I Form II
- form change upon drying ([3]; listed as Form V): converting to Form II
Molecule: Cc1cc(F)c(C(=O)Nc2cccc(-c3nncn3C(C)C)n2)cc1-n1cnc(C2CC2)c1 [Compound I Form V, 5-(4-cyclopropyl-1H-imidazol-1-yl)-N-(6-(4-isopropyl-4H-1,2,4-triazol-3-yl)pyridin-2-yl)-2-fluoro-4-methylbenzamide]

Molecule: Cc1cc(F)c(C(=O)Nc2cccc(-c3nncn3C(C)C)n2)cc1-n1cnc(C2CC2)c1 [Compound I Form VIII, 5-(4-cyclopropyl-1H-imidazol-1-yl)-N-(6-(4-isopropyl-4H-1,2,4-triazol-3-yl)pyridin-2-yl)-2-fluoro-4-methylbenzamide]
- form change at ambient conditions [3]: rapidly loses water and converts to Compound I Form VI

Molecule: Cc1cc(F)c(C(=O)Nc2cccc(-c3nncn3C(C)C)n2)cc1-n1cnc(C2CC2)c1.O=C(O)/C=C/C(=O)O [Compound I Fumarate Form I, 5-(4-cyclopropyl-1H-imidazol-1-yl)-N-(6-(4-isopropyl-4H-1,2,4-triazol-3-yl)pyridin-2-yl)-2-fluoro-4-methylbenzamide fumarate]
- deliquescence in high humidity stress test [1]: did not show any evidence of deliquescence

Molecule: Cc1cc(F)c(C(=O)Nc2cccc(-c3nncn3C(C)C)n2)cc1-n1cnc(C2CC2)c1.O=C(O)CO [Compound I Glycolate Form I, 5-(4-cyclopropyl-1H-imidazol-1-yl)-N-(6-(4-isopropyl-4H-1,2,4-triazol-3-yl)pyridin-2-yl)-2-fluoro-4-methylbenzamide glycolate]
- deliquescence in high humidity stress test [1]: did not show any evidence of deliquescence

Molecule: Cc1cc(F)c(C(=O)Nc2cccc(-c3nncn3C(C)C)n2)cc1-n1cnc(C2CC2)c1.Cl [Compound I HCl Form I, 5-(4-cyclopropyl-1H-imidazol-1-yl)-N-(6-(4-isopropyl-4H-1,2,4-triazol-3-yl)pyridin-2-yl)-2-fluoro-4-methylbenzamide hydrochloride]
- deliquescence in high humidity stress test [1]: did not show any evidence of deliquescence

Molecule: Cc1cc(F)c(C(=O)Nc2cccc(-c3nncn3C(C)C)n2)cc1-n1cnc(C2CC2)c1.O=C(O)C(O)C(O)C(=O)O [Compound I L-Tartrate Form I, 5-(4-cyclopropyl-1H-imidazol-1-yl)-N-(6-(4-isopropyl-4H-1,2,4-triazol-3-yl)pyridin-2-yl)-2-fluoro-4-methylbenzamide L-tartrate]
- deliquescence in high humidity stress test [1]: did not show any evidence of deliquescence

Molecule: Cc1cc(F)c(C(=O)Nc2cccc(-c3nncn3C(C)C)n2)cc1-n1cnc(C2CC2)c1.O=C(O)/C=C\C(=O)O [Compound I Maleate Form I, 5-(4-cyclopropyl-1H-imidazol-1-yl)-N-(6-(4-isopropyl-4H-1,2,4-triazol-3-yl)pyridin-2-yl)-2-fluoro-4-methylbenzamide maleate]
- deliquescence in high humidity stress test [1]: did not show any evidence of deliquescence

Molecule: CS(=O)(=O)O.Cc1cc(F)c(C(=O)Nc2cccc(-c3nncn3C(C)C)n2)cc1-n1cnc(C2CC2)c1 [Compound I Mesylate Form I, 5-(4-cyclopropyl-1H-imidazol-1-yl)-N-(6-(4-isopropyl-4H-1,2,4-triazol-3-yl)pyridin-2-yl)-2-fluoro-4-methylbenzamide mesylate]
- deliquescence in high humidity stress test [1]: did not show any evidence of deliquescence

Molecule: Cc1cc(F)c(C(=O)Nc2cccc(-c3nncn3C(C)C)n2)cc1-n1cnc(C2CC2)c1.O=C(O)C(=O)O [Compound I Oxalate Form I, 5-(4-cyclopropyl-1H-imidazol-1-yl)-N-(6-(4-isopropyl-4H-1,2,4-triazol-3-yl)pyridin-2-yl)-2-fluoro-4-methylbenzamide oxalate]
- deliquescence in high humidity stress test [1]: did not show any evidence of deliquescence

Molecule: Cc1cc(F)c(C(=O)Nc2cccc(-c3nncn3C(C)C)n2)cc1-n1cnc(C2CC2)c1.O=C(O)CCC(=O)O [Compound I Succinate Form I, 5-(4-cyclopropyl-1H-imidazol-1-yl)-N-(6-(4-isopropyl-4H-1,2,4-triazol-3-yl)pyridin-2-yl)-2-fluoro-4-methylbenzamide succinate]
- deliquescence in high humidity stress test [1]: did not show any evidence of deliquescence

Molecule: Cc1cc(F)c(C(=O)Nc2cccc(-c3nncn3C(C)C)n2)cc1-n1cnc(C2CC2)c1.O=S(=O)(O)O [Compound I Sulfate Form I, 5-(4-cyclopropyl-1H-imidazol-1-yl)-N-(6-(4-isopropyl-4H-1,2,4-triazol-3-yl)pyridin-2-yl)-2-fluoro-4-methylbenzamide sulfate]
- deliquescence in high humidity stress test [1]: did not show any evidence of deliquescence

Molecule: Cc1cc(F)c(C(=O)Nc2cccc(-c3nncn3C(C)C)n2)cc1-n1cnc(C2CC2)c1.Cc1ccc(S(=O)(=O)O)cc1 [Compound I Tosylate Form I, 5-(4-cyclopropyl-1H-imidazol-1-yl)-N-(6-(4-isopropyl-4H-1,2,4-triazol-3-yl)pyridin-2-yl)-2-fluoro-4-methylbenzamide tosylate]
- deliquescence in high humidity stress test [1]: did not show any evidence of deliquescence

- solubility [4]: ~20 mg/mL (≈ 44.9 mM)
- 14+ Day XRPD ([2]; suspended in 2-propanol at RT): Form I
- 24 Hour XRPD ([2]; suspended in 2-propanol at RT): Form I
- 14+ Day XRPD ([2]; suspended in ACN at RT): Form I
- 24 Hour XRPD ([2]; suspended in ACN at RT): Form I
- 24 Hour XRPD ([2]; suspended in DCM at RT): V, II
- 14+ Day XRPD ([2]; suspended in EtOAc at RT): Form I
- 24 Hour XRPD ([2]; suspended in EtOAc at RT): Form I
- 14+ Day XRPD ([2]; suspended in Ethanol at RT): Form I
- 24 Hour XRPD ([2]; suspended in Ethanol at RT): Form I
- 14+ Day XRPD ([2]; suspended in IPAC at RT): Form I
- 24 Hour XRPD ([2]; suspended in IPAC at RT): Form I
- 14+ Day XRPD ([2]; suspended in MTBE at RT): Form I
- 24 Hour XRPD ([2]; suspended in MTBE at RT): Form I
- 14+ Day XRPD ([2]; suspended in THF at RT): Form I
- 24 Hour XRPD ([2]; suspended in THF at RT): Form I
- 14+ Day XRPD ([2]; suspended in acetone at RT): Form I
- 24 Hour XRPD ([2]; suspended in acetone at RT): Form I
- 14+ Day XRPD ([2]; suspended in methanol at RT): Form I
- 24 Hour XRPD ([2]; suspended in methanol at RT): Form I
- 14+ Day XRPD ([2]; suspended in n-heptane at RT): Form I
- 24 Hour XRPD ([2]; suspended in n-heptane at RT): Form I
- 14+ Day XRPD ([2]; suspended in water at RT): Form I
- 24 Hour XRPD ([2]; suspended in water at RT): Form I
Molecule: Cc1cc(F)c(C(=O)Nc2cccc(-c3nncn3C(C)C)n2)cc1-n1cnc(C2CC2)c1 [Compound I, 5-(4-cyclopropyl-1H-imidazol-1-yl)-N-(6-(4-isopropyl-4H-1,2,4-triazol-3-yl)pyridin-2-yl)-2-fluoro-4-methylbenzamide]
